Data reported in US10188107B2 (Heinrich Heine Universität Düsseldorf, priority 2013, dated 2019).

target: T1, PEP carboxylase from F. trinervia (C4 PEPC) (Flaveria trinervia, UniProt P30694); assay: Spectrophotometric coupled assay with malate dehydrogenase, C4 PEP carboxylase; format: biochemical; details: range of concentrations, triplicate; C3 PEPC activity compared at the C4 IC50 concentration (figure legend)
T1 construct: histidine tag; made in house; host or cells: E. coli
T1 sequence (P30694 1-966): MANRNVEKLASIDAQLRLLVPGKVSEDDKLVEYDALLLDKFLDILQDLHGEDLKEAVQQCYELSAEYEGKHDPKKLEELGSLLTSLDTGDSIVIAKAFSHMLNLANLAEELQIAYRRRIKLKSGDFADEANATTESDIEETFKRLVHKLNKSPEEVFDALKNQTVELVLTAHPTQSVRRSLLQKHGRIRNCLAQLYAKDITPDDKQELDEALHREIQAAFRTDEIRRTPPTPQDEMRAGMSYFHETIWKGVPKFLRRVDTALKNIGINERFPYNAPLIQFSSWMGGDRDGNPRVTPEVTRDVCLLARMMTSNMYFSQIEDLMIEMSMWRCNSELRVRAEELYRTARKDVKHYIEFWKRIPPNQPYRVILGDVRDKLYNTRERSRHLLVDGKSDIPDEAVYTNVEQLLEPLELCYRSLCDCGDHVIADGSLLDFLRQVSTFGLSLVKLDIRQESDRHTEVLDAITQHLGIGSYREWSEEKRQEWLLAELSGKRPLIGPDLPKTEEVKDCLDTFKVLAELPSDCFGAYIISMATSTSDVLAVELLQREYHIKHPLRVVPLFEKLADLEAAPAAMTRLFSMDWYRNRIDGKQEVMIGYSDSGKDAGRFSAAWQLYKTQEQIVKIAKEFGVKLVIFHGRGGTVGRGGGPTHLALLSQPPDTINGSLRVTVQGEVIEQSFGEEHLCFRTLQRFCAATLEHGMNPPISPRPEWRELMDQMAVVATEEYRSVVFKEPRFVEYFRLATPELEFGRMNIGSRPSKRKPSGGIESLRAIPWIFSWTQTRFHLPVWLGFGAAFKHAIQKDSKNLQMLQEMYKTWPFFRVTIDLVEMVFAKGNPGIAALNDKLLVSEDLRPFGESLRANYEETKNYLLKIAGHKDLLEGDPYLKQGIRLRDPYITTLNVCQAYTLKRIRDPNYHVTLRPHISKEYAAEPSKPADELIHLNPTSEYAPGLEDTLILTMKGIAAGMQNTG
Description: How to determine the activity of a PEP carboxylase is well known in the art. E.g, the formation of oxaloacetate can be determined spectrophotometrically, e.g., in a malate dehydrogenase coupled system. The reaction velocity can be measured as a decrease in A340 resulting from the oxidation of NADH.
Inhibition of purified PEP carboxylases from F. pringlei and F. trinervia by compounds selected from the VDS was monitored by a spectrophotometric coupled assay with malate dehydrogenase which reduces the oxaloacetate formed by PEP carboxylase to malate. The simultaneous oxidation of NADH is followed at 340 nm with standard optical equipment. The concentration of the inhibitors selected from the VDS was varied in the coupled assay to determine the half maximal inhibitory concentration (IC50).

Compound | Inhibition of a C4-PEPC
O=C(/C=C/c1ccc(O)c(O)c1)c1ccc(O)cc1O [butein] | Selective inhibition
O=C(O)c1cc(/C=C/c2cc(O)ccc2O)ccc1O [1-(3′-carboxy-4′-hydroxyphenyl)-2-(2,5-dihydroxyphenl(ethene)] | Selective inhibition
catechin | Inhibition
COc1cc2ncc(-c3ccc(O)c(O)c3)nc2cc1OC [2-(3,4-Dihydroxyphenyl)-6,7-dimethoxyquinoxaline] | Inhibition

target: pyruvate phosphate dikinase (PPDK); assay: not given; details: isolated enzyme; read-out: half maximal inhibitory concentration (IC50); cited from earlier work

Compound | IC50 [µM]
C/C=C(\C)c1cc(O)c(C)c2c1Oc1cc(O)cc(C)c1C(=O)O2 [unguinol] | 40

tested on: PEP carboxylase from C4 plant Amaranthus viridis; assay: not given; details: cited from earlier work

Compound | inhibition of PEP carboxylase from Amaranthus viridis
O=c1c(O)c(-c2ccc(O)c(O)c2)oc2cc(O)cc(O)c12 [quercetin] | inhibited
O=c1c(O)c(-c2cc(O)c(O)c(O)c2)oc2cc(O)cc(O)c12 [myricetin] | inhibited
O=c1c(O)c(-c2ccc(O)cc2O)oc2cc(O)cc(O)c12 [morin] | inhibited
O=c1c(O)c(-c2ccc(O)c(O)c2)oc2cc(O)ccc12 [fisetin] | inhibited
O=c1c(O)c(-c2ccc(O)cc2)oc2cc(O)cc(O)c12 [kaempferol] | inhibited
baicalein/baicalin | inhibited
